Literature values, collected in patent US20200222353A1, “Ketone ester and ketone salt compositions and methods for using the same” (priority 2019, published 2020).

What was measured:
[1] = in vivo
[2] = compared with D-BHB

Row | crossing of the blood-brain barrier (BBB) [1] | Structure (SMILES) | breakdown in the body and use for energy [2]
1 | cross the blood-brain barrier | C[C@@H](O)CC(=O)O [D-BHB, (3R)-3-hydroxybutanoic acid] | 
2 |  | C[C@H](O)CC(=O)O [L-BHB, (3 S)-3-hydroxybutanoic acid] | not to be broken down in the body and used for energy as quickly as D-BHB
